Source: publication PMC11396129, “Oxindole–benzothiazole hybrids as CDK2 inhibitors and anticancer agents: design, synthesis and biological evaluation” (BMC Chemistry, 2024)

Experiments:
[1] = target: CDK1 (Homo sapiens, UniProt P06493); experiment: Kinase inhibitory activity on CDK1; type: biochemical; details: mean of two independent experiments ± SD
[2] = target: VEGFR-2 (Homo sapiens, UniProt P35968); experiment: Kinase inhibitory activity on VEGFR-2; type: biochemical; details: mean of two independent experiments ± SD
Chain of VEGFR-2 (P35968 20-1356, species assumed): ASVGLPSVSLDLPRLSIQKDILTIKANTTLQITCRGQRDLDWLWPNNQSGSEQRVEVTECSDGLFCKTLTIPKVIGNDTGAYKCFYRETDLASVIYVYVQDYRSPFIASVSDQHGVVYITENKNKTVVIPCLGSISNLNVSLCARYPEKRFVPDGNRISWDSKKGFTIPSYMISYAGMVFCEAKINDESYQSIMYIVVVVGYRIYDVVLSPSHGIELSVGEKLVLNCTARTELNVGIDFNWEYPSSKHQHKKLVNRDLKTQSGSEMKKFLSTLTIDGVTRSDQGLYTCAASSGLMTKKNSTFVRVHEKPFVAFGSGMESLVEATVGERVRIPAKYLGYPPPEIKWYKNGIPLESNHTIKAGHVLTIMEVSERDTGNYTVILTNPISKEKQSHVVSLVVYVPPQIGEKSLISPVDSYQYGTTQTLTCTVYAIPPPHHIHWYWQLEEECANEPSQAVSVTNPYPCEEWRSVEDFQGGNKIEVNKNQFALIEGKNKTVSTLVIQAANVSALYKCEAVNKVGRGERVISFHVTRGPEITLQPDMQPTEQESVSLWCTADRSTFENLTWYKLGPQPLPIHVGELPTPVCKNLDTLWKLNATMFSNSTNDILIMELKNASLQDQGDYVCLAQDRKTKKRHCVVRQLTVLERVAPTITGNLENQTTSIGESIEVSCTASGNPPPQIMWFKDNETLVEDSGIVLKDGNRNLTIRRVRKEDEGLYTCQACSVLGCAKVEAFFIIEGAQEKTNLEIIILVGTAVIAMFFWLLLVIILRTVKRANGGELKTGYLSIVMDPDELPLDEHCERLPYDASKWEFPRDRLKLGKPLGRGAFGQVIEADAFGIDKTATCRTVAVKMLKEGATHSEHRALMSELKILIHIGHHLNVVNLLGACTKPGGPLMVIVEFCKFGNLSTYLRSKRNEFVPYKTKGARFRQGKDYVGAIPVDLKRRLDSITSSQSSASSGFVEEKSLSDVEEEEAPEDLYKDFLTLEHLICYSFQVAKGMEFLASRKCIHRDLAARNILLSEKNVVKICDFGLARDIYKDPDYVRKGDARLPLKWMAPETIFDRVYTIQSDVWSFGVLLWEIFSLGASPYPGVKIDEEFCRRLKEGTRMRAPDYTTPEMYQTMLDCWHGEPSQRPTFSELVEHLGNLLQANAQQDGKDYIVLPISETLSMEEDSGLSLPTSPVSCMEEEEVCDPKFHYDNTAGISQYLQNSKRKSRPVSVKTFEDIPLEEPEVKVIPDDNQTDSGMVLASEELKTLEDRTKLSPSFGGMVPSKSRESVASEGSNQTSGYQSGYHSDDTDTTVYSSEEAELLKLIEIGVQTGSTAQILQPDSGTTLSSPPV

[3] = target: FGFR-1 (Homo sapiens, UniProt P11362); experiment: Kinase inhibitory activity on FGFR-1; type: biochemical; details: mean of two independent experiments ± SD
Chain of FGFR-1 (P11362 22-822, species assumed): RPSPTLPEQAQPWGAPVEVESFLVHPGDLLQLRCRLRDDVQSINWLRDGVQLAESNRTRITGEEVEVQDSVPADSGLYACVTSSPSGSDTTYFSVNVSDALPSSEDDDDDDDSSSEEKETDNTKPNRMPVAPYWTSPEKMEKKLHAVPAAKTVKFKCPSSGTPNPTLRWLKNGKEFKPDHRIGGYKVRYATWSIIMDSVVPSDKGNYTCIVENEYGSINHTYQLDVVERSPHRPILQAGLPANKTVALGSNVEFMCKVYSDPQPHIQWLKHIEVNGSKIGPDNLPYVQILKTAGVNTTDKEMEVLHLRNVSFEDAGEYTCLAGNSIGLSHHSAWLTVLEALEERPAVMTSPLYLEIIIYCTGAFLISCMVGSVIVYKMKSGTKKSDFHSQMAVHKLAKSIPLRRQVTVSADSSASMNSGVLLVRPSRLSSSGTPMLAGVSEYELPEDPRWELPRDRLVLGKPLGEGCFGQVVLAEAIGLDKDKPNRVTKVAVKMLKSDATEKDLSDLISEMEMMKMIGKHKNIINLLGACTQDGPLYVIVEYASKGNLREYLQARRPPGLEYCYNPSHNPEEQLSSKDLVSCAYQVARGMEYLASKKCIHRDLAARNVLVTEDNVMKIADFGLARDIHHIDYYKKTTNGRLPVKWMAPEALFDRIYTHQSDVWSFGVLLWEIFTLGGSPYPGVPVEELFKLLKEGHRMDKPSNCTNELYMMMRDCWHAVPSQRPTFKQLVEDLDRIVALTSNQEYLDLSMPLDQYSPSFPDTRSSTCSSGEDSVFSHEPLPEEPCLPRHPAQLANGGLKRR

[4] = target: CDK5 (Homo sapiens, UniProt Q00535); experiment: Kinase inhibitory activity on CDK5; type: biochemical; details: mean of two independent experiments ± SD
Chain of CDK5 (Q00535 whole entry, species assumed): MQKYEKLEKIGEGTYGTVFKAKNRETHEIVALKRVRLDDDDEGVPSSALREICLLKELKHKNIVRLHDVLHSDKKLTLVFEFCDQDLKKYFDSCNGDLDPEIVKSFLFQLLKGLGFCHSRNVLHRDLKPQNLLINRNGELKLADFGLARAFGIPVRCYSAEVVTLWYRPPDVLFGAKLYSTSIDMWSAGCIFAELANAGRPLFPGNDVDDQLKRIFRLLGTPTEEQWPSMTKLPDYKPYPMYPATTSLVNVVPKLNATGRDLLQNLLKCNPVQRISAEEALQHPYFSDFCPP
Chain of CDK5 (Q15078 99-307 partner limits assumed, species assumed): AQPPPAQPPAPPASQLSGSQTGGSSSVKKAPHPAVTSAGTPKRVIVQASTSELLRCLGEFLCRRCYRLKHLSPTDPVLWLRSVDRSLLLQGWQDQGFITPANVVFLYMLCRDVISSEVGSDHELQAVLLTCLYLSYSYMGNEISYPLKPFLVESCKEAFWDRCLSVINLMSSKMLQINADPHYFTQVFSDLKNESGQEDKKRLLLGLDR

[5] = system: DU145 prostate cancer cell line; experiment: Apoptosis assay (Annexin V-FITC/PI flow cytometry); type: cell-based, human; details: DU145, 9o at its GI50 concentration, 48h
Experimental: (§1) DU145 cancer cell line derived from prostate cancer was treated with the oxindole–benzothiazole conjugate 9o at its GI50. This was followed by treatment of cells according to the reported procedure and the percentage of cells in each stage of the cell cycle was identified and the percentage of cells in the apoptotic and necrotic stages were detected (for further details see additional file 1: analysis of cell cycle distribution; apoptosis assay).
(§2) 6. Analysis of cell cycle distribution
(§3) DU-145: Prostate cancer was obtained from Nawah Scientific Inc., (Mokatam, Cairo, Egypt).
Cells were maintained in DMEM media supplemented with […] of streptomycin, 100 units/mL of penicillin and 10% of heat-inactivated fetal bovine serum in humidified, 5% (v/v) […]
CO2 atmosphere at 37 °C. […]
Apoptosis and necrosis cell populations are determined using Annexin V-FITC apoptosis detection kit (Abcam Inc., Cambridge Science Park, Cambridge, UK) coupled with 2 fluorescent channels flowcytometry. After treatment with test compounds for 48h, cells (10^5 cells) are collected by trypsinization and washed twice with ice-cold PBS (pH 7.4). Then, cells are incubated in dark with 0.5 ml of Annexin V-FITC/PI solution for 30 min in dark at room temperature according to manufacturer protocol. After staining, cells are injected via ACEA Novocyte™ flowcytometer (ACEA Biosciences Inc., San Diego, CA, USA) and analysed for FITC and PI fluorescent signals using FL1 and FL2 signal detector, respectively […]
events are acquired and positive FITC and/or PI cells are quantified by quadrant analysis and […]

[6] = system: DU145 prostate cancer cell line; experiment: Cell cycle analysis (PI flow cytometry); type: cell-based, human; details: DU145, 9o at its GI50 concentration, 48h
Experimental: Concurrently, there is a decline in the % of cells in the G2 phase from 22.20% in control cells to 20.94% in 9o treated cells.
as §1, §2, §3
Cells were maintained in DMEM media supplemented with […] of streptomycin, 100 units/mL of penicillin and 10% of heat-inactivated fetal bovine serum in humidified, 5% (v/v) CO2 atmosphere at 37 °C. After treatment with 9o for 48h, cells (10^5 cells) are collected by trypsinization and washed twice with ice-cold PBS (pH 7.4). Cells are re-suspended in two milliliters of 60% ice-cold ethanol and incubated at 4 °C for 1h for fixation. Fixed cells are washed twice again with PBS (pH 7.4) and re-suspended in 1 mL of PBS containing 50 μg/mL RNAase A and 10 μg/mL propidium iodide (PI). After 20 min of incubation in dark at 37 °C, cells are analyzed for DNA contents using flow cytometry analysis using FL2 (λex/em 535/617 nm) signal detector (ACEA Novocyte™ flowcytometer, ACEA Biosciences Inc., San Diego, CA, USA). For each sample, 12,000 events are acquired. […]

Chain of CDK1 (P06493 whole entry, species assumed): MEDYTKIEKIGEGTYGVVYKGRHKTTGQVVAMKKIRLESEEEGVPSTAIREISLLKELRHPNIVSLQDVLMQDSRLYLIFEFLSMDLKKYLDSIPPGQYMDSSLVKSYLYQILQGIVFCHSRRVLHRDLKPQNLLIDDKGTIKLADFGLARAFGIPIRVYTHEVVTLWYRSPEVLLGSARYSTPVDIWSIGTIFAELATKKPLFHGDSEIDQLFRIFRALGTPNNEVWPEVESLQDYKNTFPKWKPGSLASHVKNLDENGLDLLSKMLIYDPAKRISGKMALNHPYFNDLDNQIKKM
Chain of CDK1 (P14635 whole entry partner, species assumed): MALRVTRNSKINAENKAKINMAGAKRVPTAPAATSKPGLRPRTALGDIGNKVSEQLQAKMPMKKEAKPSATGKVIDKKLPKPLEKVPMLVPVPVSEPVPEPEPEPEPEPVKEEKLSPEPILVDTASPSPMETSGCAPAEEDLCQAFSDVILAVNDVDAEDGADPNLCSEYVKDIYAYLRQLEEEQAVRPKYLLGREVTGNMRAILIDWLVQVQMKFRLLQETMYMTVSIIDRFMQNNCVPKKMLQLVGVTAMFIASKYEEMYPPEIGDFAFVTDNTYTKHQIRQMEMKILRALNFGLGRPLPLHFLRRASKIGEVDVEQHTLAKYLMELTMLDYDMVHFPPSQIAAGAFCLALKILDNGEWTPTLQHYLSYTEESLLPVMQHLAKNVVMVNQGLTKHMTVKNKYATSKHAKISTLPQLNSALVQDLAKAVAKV

SMILES: COc1ccc2c(c1)C(=NNC(=O)COc1cc(-c3nc4ccccc4s3)ccc1OC)C(=O)N2 [Compound 9o, 2-(5-(Benzo[d]thiazol-2-yl)-2-methoxyphenoxy)-N′-(5-methoxy-2-oxoindolin-3-ylidene)acetohydrazide]
- IC50 [1]: 1.19 ± 0.1 µM
- IC50 [2]: > 10 µM
- IC50 [3]: > 10 µM
- IC50 [4]: 0.34 ± 0.02 µM
- % early apoptotic cells (Q2–4) [5]: 0.28%
- % of cells in the late apoptotic stage (Q2–2) [5]: 5.02%
- % of cells in the necrotic stage (Q2–1) [5]: 2.63%
- % viable cells (Q2–3) [5]: 92.07%
- %G0/G1 [6]: 61.40%
- %G2/M [6]: 20.94%
- %S [6]: 17.66%
- %Sub-G1 [6]: 0.41%
